Source: patent publication US5219884A, “Immunosuppressant” (Taito Co., Ltd., priority 1990, dated 1993)

Experiments:
Format in all cases: cell-based
[1] = system: interleukin 6 (IL6) response of mouse spleen cells; assay: suppression of interleukin 6 (IL6) response of mouse spleen cells (plaque assay)
Procedure: The spleen was resected from 8-week-old male BALB/c mice, and single cell suspension in the serum-free RPMI1640 culture medium was prepared, and thereafter cell pellets were obtained by centrifugation (1000 rpm, 5 minutes) of the suspension. Then a mixture of 9 parts of a 0.16 M ammonium chloride solution and 1 part of a 0.17 M Tris solution (pH 7.65) was added to lyse red blood cells, and the suspension was washed three times with the serum-free RPMI1640 culture medium. The obtained cells were suspended to the concentration of 5×10^6 cells/ml in the RPMI1640 culture medium supplemented with 20% FCS, 5×10^-5 M 2-mercaptoethanol, 2×10^-3 M L glutamine, 1×10^-3 sodium pyruvate and 25% of the supernatant of the culture of T24 human bladder carcinoma cell line as a source of interluekin 6. One hundred μl of this cell suspension and 100 μl of the test substance were mixed in each well of 96-well microculture plates, and cultured at 37° C. in an atmosphere of 5% carbon dioxide for 72 hours. After termination of the culture, 50 μl of the cell suspension was collected from each well. Three hundred μl of the RPMI1640 culture medium supplemented with 0.7% agarose gel, 20 μl of physiological saline containing 40% protein A-bound sheep red blood cells and 20 μl of 300-fold dilution of anti-mouse IgG anti-serum diluted in physiological saline were mixed in a test tube, and extended uniformly on Rohduck plates (Falcon Co. 1034). After gel formation by keeping still at room temperature for a few minutes, the plates were cultured at 37° C. in an atmosphere of 5% carbon dioxide for about 4 hours.
Three hundred μl of a 40-fold dilution of guinea pig complement in the serum-free RPMI1640 culture medium was added to each plate, which was then incubated for further 2 hours. The number of plaques formed was counted under stereoscopic microscope.
SD in the Table means standard deviation. The percent suppression (%) was calculated by the following formula. [formula]

[2] = system: interleukin 2 receptor (IL-2R, Tac) expression in PHA-stimulated mouse spleen cells; assay: suppression of induction of IL-2R (Tac) expression in PHA-stimulated mouse spleen cells
Procedure: Mouse allogenic MLC and PHA-stimulated mouse spleen cells were prepared in the same as in Experimental Example 3.
The IL-2R (Tac) induced in mouse allogenic MLC and PHA-stimulated mouse spleen cells was assayed as follows:
After culturing the mouse allogenic MLC and the PHA-stimulated mouse spleen cells at 37° C. in an atmosphere of 5% carbon dioxide for 24 hours, the cells were collected by centrifugation (1000 rpm, 5 minutes, 4° C.), and about 10^6 cells were cultured in 10 μl of phosphate buffered saline (PBS), to which 0.02% sodium azide-containing rat anti-mouse IL-2R monoclonal antibody (manufactured by Boehringer Co., 40 μg/ml) had been added, for 30 minutes with ice-cooling. After washing three times with ice-cooled PBS containing 0.02% sodium azide, 50 μl of fluorescein isothiocyanate (FITC)-labeled goat anti-rat immunoglobulin G antibody was added and cultured for 30 minutes with ice-cooling. To the cell pellet after washing three times with ice-cooled 0.02% sodium azide-added PBS was added, a few drops of PBS containing 0.2% sodium azide and 50% glycerin. Prepared specimens on non-fluorescent slide glasses were made and the IL-2R positive cells were counted under a fluorescent microscope to determine the ratio of numbers of IL-2R positive cells in the total numbers of the cells.

[3] = system: interleukin 1 (IL1) response of mouse thymocytes; assay: suppression of interleukin 1 (IL1) response of mouse thymocytes; details: PHA + IL1
Procedure: The thymus was resected from 7-week-old male C3H/HeN mice, and single cell suspension was prepared using the serum-free RPMI1640 culture medium. After three times washing with the medium, the cells were suspended to a concentration of 1.5×10^7 cells/ml in the RPMI1640 culture medium supplemented with 20% fetal calf serum, 5×10^-5 M 2-mercaptoethanol, 2×10^-3 M L-glutamine, 1×10^-3 M sodium pyruvate, 1 μg/ml of phytohemagglutinin (PHA, Wellcome Co., HA16/17) and 2 units/ml of human ultrapure interleukin 1 (Genzyme Co., GUPi-1). One hundred μl of this cell suspension and 100 μl of the solution containing ISP-I were mixed in each well of the 96-well flat-bottomed microculture plate, cultured at 37° C. in an atmosphere of 5% carbon dioxide for 66 hours, and cultured for further 6 hours after addition of 0.5 μCi/well of ^3 H-thymidine. After termination of the culture, the cells in each well were harvested onto a filter by a multiple cell harvester, and the radioactivity incorporated into the cells was measured by liquid scintillation method using a toluene-base scintillator.
In the table, SD means standard deviation. The percent suppression (%) was calculated by the following formulation. [formula]

CCCCCCC(=O)CCCCCC/C=C/CC(O)C(O)C(N)(CO)C(=O)O (stereo not drawn) [Example 1]
Number of plaque ([1]; 0.002 μg/ml): 130 ± 4 plaque/1 × 10^6 cells ± SD
Number of plaque ([1]; 0.02 μg/ml): 108 ± 10 plaque/1 × 10^6 cells ± SD
Number of plaque ([1]; 0.2 μg/ml): 78 ± 6 plaque/1 × 10^6 cells ± SD
Number of plaque ([1]; 2 μg/ml): 60 ± 8 plaque/1 × 10^6 cells ± SD
inhibition at 0.002 µg/mL ([1]; Mus musculus, 72 h, 0.002 μg/ml): 39.2%
inhibition at 0.02 µg/mL ([1]; Mus musculus, 72 h, 0.02 μg/ml): 50.5%
inhibition at 0.2 µg/mL ([1]; Mus musculus, 72 h, 0.2 μg/ml): 66%
inhibition at 2 µg/mL ([1]; Mus musculus, 72 h, 2 μg/ml): 75.3%
IL-2R positive cells ([2]; 0.1 μg/ml): 36.6%
IL-2R positive cells ([2]; 1 μg/ml): 26.6%
IL-2R positive cells ([2]; 10 μg/ml): 13.4%
inhibition at 0.1 µg/mL ([2]; Mus musculus, 24 h, 0.1 μg/ml): 20.8%
inhibition at 1 µg/mL ([2]; Mus musculus, 24 h, 1 μg/ml): 42.4%
inhibition at 10 µg/mL ([2]; Mus musculus, 24 h, 10 μg/ml): 71%
inhibition at 0.2 µg/mL ([3]; Mus musculus, Thymocyte, 72 h, 0.2 μg/ml): 83.9%
inhibition at 2 µg/mL ([3]; Mus musculus, Thymocyte, 72 h, 2 μg/ml): 91.8%
3H-thymidine uptake ([3]; 0.2 μg/ml): 4646 ± 826 cpm ± SD
3H-thymidine uptake ([3]; 2 μg/ml): 3973 ± 39 cpm ± SD
